Measured values taken from patent US20220281846A1, “COMPOUNDS AND COMPOSITIONS FOR THE TREATMENT OF RESPIRATORY DISEASES” (THE UNIVERSITY OF MELBOURNE, priority 2018, published 2022).

Experiments:
[1] = In vivo determination of whole blood-to-plasma ratio; parameters: species or system male C57BL/6 mice; conditions: mouse blood, 15 min and 1 h post-dose
Description: Blood was collected from mice at 15 min and 1 h post-dose of each compound for the purposes of determining the whole blood-to-plasma (B/P) ratio. […] No adverse reactions or compound-related side effects observed in any mice during the 24 h sampling period after dosing any of the compounds. Plasma samples were also taken from 2 mice that were not administered test compound for use as analytical tool.
Analysis of B/P partitioning samples was conducted similarly and quantified against calibration standards samples prepared using a 1:1 v/v mixture of blank mouse blood and plasma. The matrix matched B/P partitioning samples and standards were processed using protein precipitation with acetonitrile as described above.
In Vivo Determination of Whole Blood-to-Plasma Ration
Blood was collected via cardiac puncture (whilst under gaseous isoflurane anaesthesia) into tubes containing heparin and stabilisation cocktail. The haematocrit was determined via centrifugation (13000×g for 4 min using a Clemets® Microhematocrit centrifuge and Safecap® Plain Self-sealing Mylar Wrapped capillary tubes), and values ranged from 38% to 40% for PF670462 and 38% to 44% for ZH3-138. […]
The B/P ratio was obtained by dividing the average measured concentration in blood by the average concentration measured in plasma following centrifugation of whole blood.

[2] = In vitro metabolic stability, human liver microsomes; type: in vitro ADME; conditions: for Predicted CLblood: well stirred model
Description: Human Microsomal Stability of Compounds of the Invention
In Vitro Metabolic Stability
Incubation: The metabolic stability assay was performed by incubating each test compound in human liver microsomes at 37° C. and a protein concentration of 0.4 mg/mL. The metabolic reaction was initiated by the addition of an NADPH-regenerating system and quenched at various time points over a 60 minute incubation period by the addition of acetonitrile containing diazepam as internal standard. Control samples (containing no NADPH) were included (and quenched at 2, 30 and 60 minutes) to monitor for potential degradation in the absence of cofactor. The human liver microsomes used in this experiment were supplied by XenoTech, lot #1410230. Microsomal incubations were performed at a substrate concentration of 1 μM. Data analysis: Species scaling factors from Ring et al. (2011) JPharmSci, 100:4090-4110 were used to convert the in vitro CLint (μL/min/mg) to an in vivo CLint(mL/min/kg). Hepatic blood clearance and the corresponding hepatic extraction ratio (EH) were calculated using the well stirred model of hepatic extraction in each species, according to the “in vitro T1/2” approach described in Obach (1999) DrugMetab. Dispos. 27:1350-1359. The EH was then used to classify compounds as low(<0.3), intermediate (0.3-0.7), high (0.7-0.95) or very high (>0.95) extraction compounds. Predicted in vivo clearance values have not been corrected for microsomal or plasma protein binding. Species scaling calculations are based on two assumptions: 1) NADPH-dependent oxidative metabolism predominates over other metabolic routes (i.e. direct conjugative metabolism, reduction, hydrolysis, etc.), and; 2) rates of metabolism and enzyme activities in vitro are truly reflective of those that exist in vivo. If significant non-NADPH-mediated degradation is observed in microsome control samples, then assumption (1) is invalid and predicted clearance parameters are therefore not reported.

[3] = human liver microsomes, 1 μM, 0.4 mg/mL protein, 37° C.
[4] = scaled from human liver microsomes

blood plasma ratio ([1]; male, C57BL/6, whole blood and plasma, read-out: apparent whole blood-to-plasma ratio (B/P)) | Predicted EH (hepatic extraction ratio) ([2]; human liver microsomes) | microsomal CLint at 1 μM ([2]; human liver microsomes, 1 μM) [µL/min/mg] | half-life at 1 μM [2, 3] [h] | Predicted CLblood [2, 4] [mL/min/kg] | CLint scaled at 1 μM ([2]; scaled from human liver microsomes, read-out: Predicted CLint, in vivo) [mL/min/kg] | apparent whole blood-to-plasma ratio (B/P) [1] | CLint, in vitro ([2]; human liver microsomes, 1 μM) [μL/min/mg protein] | T1/2 [2, 3] [min] | Predicted CLint, in vivo [2, 4] [mL/min/kg] | Structure (SMILES)
0.91 | <0.22 | < 7 | > 4.25 | <5 | < 6 |  |  |  |  | Nc1nccc(-c2c(-c3ccc(F)cc3)ncn2C2CCC(F)(F)CC2)n1 [ZH3-138, 4-(1-(4,4-Difluorocyclohexyl)-4-(4-fluorophenyl)-1H-imidazol-5-yl)pyrimidin-2-amine]
 | 0.88 |  |  | 18 |  | 1.0 | 192 | 9 | 158 | Nc1nccc(-c2c(-c3ccc(F)cc3)ncn2C2CCCCC2)n1 [PF670462, reference compound]
